These are literature values, as cited in patent US20140030308A1, “IMPLANTS AND PROCEDURES FOR PROMOTING AUTOLOGOUS STEM CELL GROWTH” (priority 2012, published 2014).

SMILES strings stand for the structures.

For the data set the following is noted: general statement used to time administration before stent placement.

For `c1cc(CN2CCCNCCNCCCNCC2)ccc1CN1CCCNCCNCCCNCC1` [Prelixafor, 1,1′-[1,4-phenylenebis(methylene)]bis-1,4,8,11-tetraazacyclotetradecane], the half-life entry is recorded as “about 8 hours”.
